Measured values reported in patent US20260053811A1, “METHODS OF TREATING HYPERTENSION IN OBESE SUBJECTS” (Mineralys Therapeutics, Inc., priority 2022, published 2026).

Tested on: hypertensive subjects
Assay: Seated automated office blood pressure (AOBP) in randomized, placebo-controlled, dose-ranging study
Assay type: in vivo, human
Conditions: Part 1, 50 mg QD
Procedure: A randomized, double-blinded, placebo-controlled, dose-ranging, multicenter study was conducted to evaluate the effect of orally administered Compound A HBr on blood pressure for the treatment of hypertension in male and female subjects ≥18 years of age.
The study consists of two parts. For enrollment into Part 1 of the study, a subject's value of plasma renin activity (PRA) must be ≤1 ng/mL/h based on morning measurement. If the value of PRA >1 ng/mL/h based on morning measurement, then subjects may be eligible to enter Part 2 of the study.
For Part 1, 163 enrolled subjects ≥18 years of age were randomized into 6 equal treatment groups (1:1:1:1:1:1) to 12.5 mg BID, 25 mg BID, 12.5 mg QD, 50 mg QD, 100 mg QD, or placebo. After a review of interim clinical data, the 2 lowest dose levels (12.5 mg QD and 12.5 mg BID) were stopped for future randomization due to a lack of consistent meaningful reduction of blood pressure, but the patients randomized to that point remained in the study through completion. Thus, after the review of interim clinical data, subjects were randomized into 4 equal treatment groups (1:1:1:1) to 25 mg BID, 50 mg QD, 100 mg QD, or placebo.
For Part 2, 36 enrolled subjects ≥18 years of age were randomized (5:1) to either 100 mg QD Compound A HBr or placebo such that the Compound A HBr treatment group consisted of approximately 30 subjects and the placebo treatment group will consist of approximately 6 subjects.
Subjects orally administered the assigned study drug (Compound A HBr or placebo) according to the assigned dosing regimen for 8 weeks beginning on Study Day 1. All subjects in Part 1 (regardless of dosing group) received BID dosing to preserve the integrity of the blind; active drug is administered as the morning dose for all QD dose groups. Subjects returned to the research facility or were seen by the clinical investigator or approved home health care professional at the end of Study Weeks 1, 2, 3, 4, 5, 6, 7, and 8 (±2 days) for protocol-defined efficacy and safety assessments and procedures, assessment of adverse events (AEs), and confirmation of compliance with study drug usage. Subjects also completed a telephone visit and blood pressure (BP) check at home approximately 3 days post last dose of study drug. Subjects attended up to 14 full clinic visits, including a pre-Screening visit, a Screening/start of Placebo Run-in visit, a second visit during Placebo Run-in, a clinic visit to initiate the ABPM procedure, a Randomization visit, 8 weekly visits during double-blind treatment, and an end-of-study visit scheduled 4 weeks after the last study treatment for final efficacy and safety assessments.
An automated oscillometric sphygmomanometer device was used to measure the subjects' systolic and diastolic blood pressure in office after approximately 5 minutes of rest in the seated position.
The primary endpoint is the change in office-measured (mean of last 2 of 5 unattended measurements using an automated oscillometric sphygmomanometer device after approximately 5 minutes of rest in the seated position) systolic blood pressure (SBP) from baseline to the end of Study Week 8.
Secondary endpoints of this study were: • (a) Change in 24-hour ambulatory blood pressure monitoring (ABPM) parameters (systolic and diastolic) from baseline to the end of Study Week 7. • (b) Change in office-measured SBP from baseline to the end of Study Weeks 1, 2, 3, 4, 5, 6, and 7. • (c) Change in office-measured diastolic blood pressure (DBP) from baseline to the end of Study Weeks 1, 2, 3, 4, 5, 6, 7, and 8. • (d) Proportion of subjects who achieve office-measured BP of ≤130/80 mm Hg by the end of Study Week 8.

CC(=O)N[C@H]1CC[C@H](NC(=O)CN2CCN(c3nncc(-c4ccc(C)cc4)n3)CC2)CC1 [Compound A HBr]
Mean (SD) Change from Baseline at Week 8 in Automated Office-Measured Systolic Blood Pressure (ACEi/ARB Yes): −15.75 (17.46) mmHg | Mean (SD) Automated Office-Measured Diastolic Blood Pressure at Wk 8 (ACEi/ARBs No): 78.75 (13.72) mmHg | Mean (SD) Change from Baseline at Week 8 in Automated Office-Measured Diastolic Blood Pressure (ACEi/ARBs No): −4.44 (10.67) mmHg | Mean (SD) Automated Office-Measured Diastolic Blood Pressure at Wk 8 (ACEi/ARBs Yes): 76.05 (8.09) mmHg | Mean (SD) Change from Baseline at Week 8 in Automated Office-Measured Diastolic Blood Pressure (ACEi/ARBs Yes): −9.50 (8.30) mmHg | Mean (SD) Automated Office-Measured Diastolic Blood Pressure at Wk 8 (AHTs 2): 76.40 (10.12) mmHg | Mean (SD) Automated Office-Measured Systolic Blood Pressure at Wk 8 (AHTs 2): 129.60 (13.98) mmHg | Mean (SD) Change from Baseline at Week 8 in Automated Office-Measured Diastolic Blood Pressure (AHTs 2): −7.03 (9.50) mmHg | Mean (SD) Change from Baseline at Week 8 in Automated Office-Measured Systolic Blood Pressure (AHTs 2): −10.28 (15.34) mmHg | Mean (SD) Automated Office-Measured Diastolic Blood Pressure at Wk 8 (AHTs ≥3): 77.88 (9.58) mmHg | Mean (SD) Automated Office-Measured Systolic Blood Pressure at Wk 8 (AHTs ≥3): 126.25 (13.56) mmHg | Mean (SD) Change from Baseline at Week 8 in Automated Office-Measured Diastolic Blood Pressure (AHTs ≥3): −10.63 (8.12) mmHg | Mean (SD) Change from Baseline at Week 8 in Automated Office-Measured Systolic Blood Pressure (AHTs ≥3): −20.44 (20.36) mmHg | Mean (SD) Automated Office-Measured Diastolic Blood Pressure at Wk 8 (Age 65-79 yr): 72.54 (8.04) mmHg | Mean (SD) Automated Office-Measured Systolic Blood Pressure at Wk 8 (Age 65-79 yr): 127.92 (13.82) mmHg | Mean (SD) Change from Baseline at Week 8 in Automated Office-Measured Diastolic Blood Pressure (Age 65-79 yr): −8.88 (9.23) mmHg | Mean (SD) Change from Baseline at Week 8 in Automated Office-Measured Systolic Blood Pressure (Age 65-79 yr): −15.15 (18.27) mmHg | Mean (SD) Automated Office-Measured Diastolic Blood Pressure at Wk 8 (Age <65 yr): 80.53 (9.93) mmHg | Mean (SD) Automated Office-Measured Systolic Blood Pressure at Wk 8 (Age <65 yr): 129.27 (14.04) mmHg | Mean (SD) Change from Baseline at Week 8 in Automated Office-Measured Diastolic Blood Pressure (Age <65 yr): −7.33 (9.30) mmHg | Mean (SD) Change from Baseline at Week 8 in Automated Office-Measured Systolic Blood Pressure (Age <65 yr): −11.47 (16.60) mmHg | Mean (SD) Automated Office-Measured Diastolic Blood Pressure at Wk 8 (BMI 25−30 kg/m^2): 80.27 (6.29) mmHg | Mean (SD) Change from Baseline at Week 8 in Automated Office-Measured Diastolic Blood Pressure (BMI 25−30 kg/m^2): −4.50 (8.75) mmHg | Mean (SD) Automated Office-Measured Diastolic Blood Pressure at Wk 8 (BMI <25 kg/m^2): 61.00 (NE) mmHg | Mean (SD) Change from Baseline at Week 8 in Automated Office-Measured Diastolic Blood Pressure (BMI <25 kg/m^2): −24.50 (NE) mmHg | Mean (SD) Automated Office-Measured Diastolic Blood Pressure at Wk 8 (BMI >30 kg/m^2): 76.07 (11.02) mmHg | Mean (SD) Change from Baseline at Week 8 in Automated Office-Measured Diastolic Blood Pressure (BMI >30 kg/m^2): −9.67 (8.59) mmHg | Mean (SD) Automated Office-Measured Systolic Blood Pressure at Wk 8 (BMI at baseline 25-30 kg/m^2): 136.64 (14.70) mmHg | Mean (SD) Change from Baseline at Week 8 in Automated Office-Measured Systolic Blood Pressure (BMI at baseline 25-30 kg/m^2): −2.45 (15.21) mmHg | Mean (SD) Automated Office-Measured Systolic Blood Pressure at Wk 8 (BMI at baseline <25 kg/m^2): 118.00 (NE) mmHg | Mean (SD) Change from Baseline at Week 8 in Automated Office-Measured Systolic Blood Pressure (BMI at baseline <25 kg/m^2): −38.00 (NE) mmHg | Mean (SD) Automated Office-Measured Systolic Blood Pressure at Wk 8 (BMI at baseline >30 kg/m^2): 124.13 (10.98) mmHg | Mean (SD) Change from Baseline at Week 8 in Automated Office-Measured Systolic Blood Pressure (BMI at baseline >30 kg/m^2): −19.27 (15.13) mmHg | Mean (SD) Automated Office-Measured Diastolic Blood Pressure at Wk 8 (Race Black or AA): 83.25 (8.88) mmHg | Mean (SD) Automated Office-Measured Systolic Blood Pressure at Wk 8 (Race Black or AA): 130.38 (14.12) mmHg | Mean (SD) Change from Baseline at Week 8 in Automated Office-Measured Diastolic Blood Pressure (Race Black or AA): −4.88 (8.84) mmHg | Mean (SD) Change from Baseline at Week 8 in Automated Office-Measured Systolic Blood Pressure (Race Black or AA): −12.31 (18.13) mmHg | Mean (SD) Automated Office-Measured Diastolic Blood Pressure at Wk 8 (Race Other): 74.25 (9.14) mmHg | Mean (SD) Automated Office-Measured Systolic Blood Pressure at Wk 8 (Race Other): 127.95 (13.83) mmHg | Mean (SD) Change from Baseline at Week 8 in Automated Office-Measured Diastolic Blood Pressure (Race Other): −9.33 (9.15) mmHg | Mean (SD) Change from Baseline at Week 8 in Automated Office-Measured Systolic Blood Pressure (Race Other): −13.53 (17.25) mmHg | Mean (SD) Automated Office-Measured Diastolic Blood Pressure at Wk 8 (Seated SBP Tertile High): 73.25 (8.33) mmHg | Mean (SD) Change from Baseline at Week 8 in Automated Office-Measured Diastolic Blood Pressure (Seated SBP Tertile High): −13.94 (7.82) mmHg | Mean (SD) Automated Office-Measured Diastolic Blood Pressure at Wk 8 (Seated SBP Tertile Low): 81.08 (9.65) mmHg | Mean (SD) Change from Baseline at Week 8 in Automated Office-Measured Diastolic Blood Pressure (Seated SBP Tertile Low): 2.42 (8.22) mmHg | Mean (SD) Automated Office-Measured Diastolic Blood Pressure at Wk 8 (Seated SBP Tertile Middle): 74.00 (10.06) mmHg
